Laboratory results reported in ChEMBL document CHEMBL4602730, “In Vitro and in Vivo Evaluation of Membrane-Active Flavone Amphiphiles: Semisynthetic Kaempferol-Derived Antimicrobials against Drug-Resistant Gram-Positive Bacteria” (J Med Chem, 2020).
Values after ≈ are worked out from the molar mass of the structure shown.

Experiments:
Staphylococcus aureus [1] = assay: Antibacterial activity against methicillin-resistant Staphylococcus aureus NCTC 10442 assessed as inhibition of bacterial growth incubated for 24 hrs by broth microdilution method; type: functional; conditions: NCTC 10442, 24 h
Staphylococcus aureus [2] = assay: Antibacterial activity against Staphylococcus aureus ATCC 29213 assessed as inhibition of bacterial growth incubated for 24 hrs by broth microdilution method; type: functional; conditions: ATCC 29213, 24 h
[3] = Induction of hemolysis in rabbit RBC incubated for 1 hr; type: cell-based, Oryctolagus cuniculus, Erythrocyte; conditions: rabbit red blood cells (erythrocytes)
Staphylococcus aureus [4] = assay: Antibacterial activity against methicillin-resistant Staphylococcus aureus N315 assessed as inhibition of bacterial growth incubated for 24 hrs by broth microdilution method; type: functional; conditions: N315, 24 h

Row | Compound | MIC (Staphylococcus aureus [1]) | MIC (Staphylococcus aureus [2]) | HC50 at 1 h [3] | MIC (Staphylococcus aureus [4])
1 | CCCOc1ccc(-c2oc3cc(OCCC)cc(O)c3c(=O)c2OCCCN(CC)CC)cc1 | 12.9 µM (≈ 6.24 µg/mL) | 12.9 µM (≈ 6.24 µg/mL) | 121 µM | 12.9 µM (≈ 6.24 µg/mL)
2 | CCN(CC)CCCOc1c(-c2ccc(OCC=C(C)C)cc2)oc2cc(OCC=C(C)C)cc(O)c2c1=O | 5.8 µM (≈ 3.11 µg/mL) | 5.8 µM (≈ 3.11 µg/mL) | 59.9 µM | 5.8 µM (≈ 3.11 µg/mL)
3 | CCN(CC)CCOc1c(-c2ccc(OCC=C(C)C)cc2)oc2cc(OCC=C(C)C)cc(O)c2c1=O | 95.8 µM (≈ 50 µg/mL) | 95.8 µM (≈ 50 µg/mL) | > 383 µM | 95.8 µM (≈ 50 µg/mL)
4 | CCCCCCCCCOc1ccc(-c2oc3cc(OCCCCCCCCC)cc(O)c3c(=O)c2OCCCN(CC)CC)cc1 | > 76.7 µM | > 76.7 µM | > 307 µM | > 76.7 µM
5 | CCN(CC)CCCCCCCCOc1c(-c2ccc(OCC=C(C)C)cc2)oc2cc(OCC=C(C)C)cc(O)c2c1=O | 82.5 µM (≈ 50 µg/mL) | 82.5 µM (≈ 50 µg/mL) | 29.4 µM | 20.6 µM (≈ 12.5 µg/mL)
6 | CCCOc1ccc(-c2oc3cc(OCCC)cc(O)c3c(=O)c2O)cc1 | > 135 µM | > 135 µM | > 540 µM | > 135 µM
7 | CC(C)=CCOc1ccc(-c2oc3cc(OCC=C(C)C)cc(O)c3c(=O)c2OCC(=O)N[C@@H](CCCNC(=N)N)C(=O)NCCCN(C)C)cc1 | 8.7 µM (≈ 6.27 µg/mL) | 8.7 µM (≈ 6.27 µg/mL) | 131 µM | 8.7 µM (≈ 6.27 µg/mL)
8 | CCCCCCCCCOc1ccc(-c2oc3cc(OCCCCCCCCC)cc(O)c3c(=O)c2O)cc1 | > 92.8 µM | > 92.8 µM | > 371 µM | > 92.8 µM
9 | CCCCCOc1ccc(-c2oc3cc(OCCCCC)cc(O)c3c(=O)c2OCCCN(CC)CC)cc1 | 23.2 µM (≈ 12.5 µg/mL) | 11.6 µM (≈ 6.26 µg/mL) | 284 µM | 11.6 µM (≈ 6.26 µg/mL)
10 | CCN(CC)CCCCOc1c(-c2ccc(OCC=C(C)C)cc2)oc2cc(OCC=C(C)C)cc(O)c2c1=O | 5.7 µM (≈ 3.13 µg/mL) | 5.7 µM (≈ 3.13 µg/mL) | 32.2 µM | 5.7 µM (≈ 3.13 µg/mL)
11 | CC(C)=CCOc1ccc(-c2oc3cc(OCC=C(C)C)cc(O)c3c(=O)c2OCCCN2CCOCC2)cc1 | > 91 µM | > 91 µM | > 364 µM | > 91 µM
12 | CC(C)=CCOc1ccc(-c2oc3cc(OCC=C(C)C)cc(O)c3c(=O)c2O)cc1 | > 118 µM | > 118 µM | > 473 µM | > 118 µM
13 | CC(C)=CCOc1ccc(-c2oc3cc(OCC=C(C)C)cc(O)c3c(=O)c2OCCCN(C)C)cc1 | 12.3 µM (≈ 6.24 µg/mL) | 12.3 µM (≈ 6.24 µg/mL) | 228 µM | 12.3 µM (≈ 6.24 µg/mL)
14 | COC(=O)[C@H](Cc1c[nH]cn1)NC(=O)COc1c(-c2ccc(OCC=C(C)C)cc2)oc2cc(OCC=C(C)C)cc(O)c2c1=O | > 79.2 µM | > 79.2 µM | > 317 µM | > 79.2 µM
15 | CCCCCCCCNCCCOc1c(-c2ccc(OCC=C(C)C)cc2)oc2cc(OCC=C(C)C)cc(O)c2c1=O | > 84.5 µM | > 84.5 µM | > 338 µM | 21.1 µM (≈ 12.5 µg/mL)
16 | CC(C)=CCOc1ccc(-c2oc3cc(OCC=C(C)C)cc(OCC(=O)NCCCN(C)C)c3c(=O)c2OCC(=O)NCCCN(C)C)cc1 | 70.7 µM (≈ 50 µg/mL) | 35.4 µM (≈ 25 µg/mL) | > 283 µM | 70.7 µM (≈ 50 µg/mL)
17 | CCN(CC)CCCCCCOc1c(-c2ccc(OCC=C(C)C)cc2)oc2cc(OCC=C(C)C)cc(O)c2c1=O | 10.8 µM (≈ 6.24 µg/mL) | 10.8 µM (≈ 6.24 µg/mL) | 83.8 µM | 10.8 µM (≈ 6.24 µg/mL)
18 | CC(C)=CCOc1ccc(-c2oc3cc(OCC=C(C)C)cc(O)c3c(=O)c2OCCCN2CCN(C)CC2)cc1 | 22.2 µM (≈ 12.5 µg/mL) | 22.2 µM (≈ 12.5 µg/mL) | 83.3 µM | 11.1 µM (≈ 6.25 µg/mL)
19 | CCCCCNCCCOc1c(-c2ccc(OCC=C(C)C)cc2)oc2cc(OCC=C(C)C)cc(O)c2c1=O | 22.7 µM (≈ 12.5 µg/mL) | 45.5 µM (≈ 25 µg/mL) | 69.7 µM | 11.4 µM (≈ 6.27 µg/mL)

Row | Compound | MIC (Staphylococcus aureus [1]) | MIC (Staphylococcus aureus [2]) | HC50 at 1 h [3] | MIC (Staphylococcus aureus [4])
20 | CCCCCOc1ccc(-c2oc3cc(OCCCCC)cc(O)c3c(=O)c2O)cc1 | > 117 µM | > 117 µM | > 469 µM | > 117 µM
21 | CCN(CC)CCCCCCCCCCOc1c(-c2ccc(OCC=C(C)C)cc2)oc2cc(OCC=C(C)C)cc(O)c2c1=O | > 78.9 µM | > 78.9 µM | > 316 µM | > 78.9 µM
22 | CCN(CC)CCCNC(=O)COc1c(-c2ccc(OCC=C(C)C)cc2)oc2cc(OCC=C(C)C)cc(OCC(=O)NCCCN(CC)CC)c2c1=O | > 65.5 µM | > 65.5 µM | > 262 µM | > 65.5 µM
23 | CCCN(CCC)CCCOc1c(-c2ccc(OCC=C(C)C)cc2)oc2cc(OCC=C(C)C)cc(O)c2c1=O | > 88.7 µM | > 88.7 µM | > 355 µM | > 88.7 µM
24 | CCCCCCCOc1ccc(-c2oc3cc(OCCCCCCC)cc(O)c3c(=O)c2O)cc1 | > 104 µM | > 104 µM | > 414 µM | > 104 µM
25 | CCCC[N+](C)(CCCC)CCCOc1c(-c2ccc(OCC=C(C)C)cc2)oc2cc(OCC=C(C)C)cc(O)c2c1=O | 34.1 µM | 17.1 µM | 46.9 µM | 17.1 µM
26 | CCCCN(CCCC)CCCOc1c(-c2ccc(OCC=C(C)C)cc2)oc2cc(OCC=C(C)C)cc(O)c2c1=O | > 84.5 µM | > 84.5 µM | > 338 µM | > 84.5 µM
27 | CC(C)=CCOc1ccc(-c2oc3cc(OCC=C(C)C)cc(O)c3c(=O)c2OCCC[N+](C)(C)C)cc1 | 4.8 µM | 4.8 µM | 77.3 µM | 2.4 µM
28 | CC(C)=CCOc1ccc(-c2oc3cc(OCC=C(C)C)cc(O)c3c(=O)c2OCCCN2CCSCC2)cc1 | > 88.4 µM | > 88.4 µM | > 354 µM | > 88.4 µM
29 | CC(C)=CCOc1ccc(-c2oc3cc(OCC=C(C)C)cc(O)c3c(=O)c2OCCCN2CCCC2)cc1 | 23.4 µM (≈ 12.5 µg/mL) | 23.4 µM (≈ 12.5 µg/mL) | > 375 µM | 11.7 µM (≈ 6.24 µg/mL)
30 | CCN(CC)CCCNC(=O)COc1c(-c2ccc(OCC=C(C)C)cc2)oc2cc(OCC=C(C)C)cc(O)c2c1=O | 21.1 µM (≈ 12.5 µg/mL) | 10.5 µM (≈ 6.22 µg/mL) | 80.3 µM | 10.5 µM (≈ 6.22 µg/mL)
31 | O=c1c(O)c(-c2ccc(O)cc2)oc2cc(O)cc(O)c12 [KAEMPFEROL] | > 175 µM | > 175 µM |  | > 175 µM
32 | CCN(CC)CCCCCOc1c(-c2ccc(OCC=C(C)C)cc2)oc2cc(OCC=C(C)C)cc(O)c2c1=O | 22.2 µM (≈ 12.5 µg/mL) | 22.2 µM (≈ 12.5 µg/mL) | 99 µM | 22.2 µM (≈ 12.5 µg/mL)
33 | CCCNCCCOc1c(-c2ccc(OCC=C(C)C)cc2)oc2cc(OCC=C(C)C)cc(O)c2c1=O | 12 µM (≈ 6.26 µg/mL) | 24 µM (≈ 12.5 µg/mL) | 49.8 µM | 6 µM (≈ 3.13 µg/mL)
34 | COC(=O)[C@H](CCCNC(=N)N)NC(=O)[C@H](CCCNC(=N)N)NC(=O)COc1c(-c2ccc(OCC=C(C)C)cc2)oc2cc(OCC=C(C)C)cc(O)c2c1=O | 3.9 µM (≈ 3.15 µg/mL) | 3.9 µM (≈ 3.15 µg/mL) | 82.5 µM | 3.9 µM (≈ 3.15 µg/mL)
35 | CCCCCCCOc1ccc(-c2oc3cc(OCCCCCCC)cc(O)c3c(=O)c2OCCCN(CC)CC)cc1 | > 83.9 µM | > 83.9 µM | > 336 µM | > 83.9 µM
36 | CC(C)=CCOc1ccc(-c2oc3cc(OCC=C(C)C)cc(O)c3c(=O)c2OCC(=O)NCCCN(C)C)cc1 | 22.1 µM (≈ 12.5 µg/mL) | 11.1 µM (≈ 6.27 µg/mL) | 287 µM | 11.1 µM (≈ 6.27 µg/mL)
37 | CC[N+](C)(CC)CCCOc1c(-c2ccc(OCC=C(C)C)cc2)oc2cc(OCC=C(C)C)cc(O)c2c1=O | 4.6 µM | 4.6 µM | 88.2 µM | 2.3 µM
